Assays:
Format in all cases: in vivo
[1] = test system: bermudagrass (Cynodon dactylon); test: Test B pre-/postemergence plant response
Outline: (§1)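 Ratings reflect visual comparison with untreated controls 13 to 15 days after application, from 0 (no effect) to 100 (complete control). Application was preemergence to seeded loam/sand soil or postemergence to 1- to 4-leaf plants, with compound in a non-phytotoxic, surfactant-containing solvent.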

[2] = test system: galium (catchweed bedstraw, Galium aparine); test: Test B pre-/postemergence plant response; settings: Preemergence; for Galium plant response rating: 125 g ai/ha
Outline: as §1

[3] = test system: morningglory (Ipomoea coccinea); test: Test B pre-/postemergence plant response
Outline: as §1

[4] = test system: nightshade (eastern black nightshade, Solanum ptycanthum); test: Test B pre-/postemergence plant response; settings: Preemergence; for Nightshade plant response rating: 125 g ai/ha
Outline: as §1

[5] = test system: sunflower (common oilseed sunflower, Helianthus annuus); test: Test B pre-/postemergence plant response; settings: Preemergence; for Sunflower plant response rating: 125 g ai/ha
Outline: as §1

[6] = test system: canarygrass (Phalaris minor); test: Test B postemergence plant response; settings: Postemergence; for Canarygrass plant response rating: 250 g ai/ha, scale 0 to 100
Outline: (§2)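 Plants grown in peat/vermiculite medium were sprayed postemergence at 2–18 cm height (1- to 4-leaf stage). After 13–15 days in the greenhouse, response was rated visually against untreated controls on a 0–100 scale (0 no effect, 100 complete control).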

[7] = test system: chickweed (Stellaria media); test: Test B postemergence plant response; settings: Postemergence; for Chickweed plant response rating: 250 g ai/ha, scale 0 to 100
Outline: as §2

[8] = test system: windgrass (Apera spica-venti); test: Test B postemergence plant response; settings: Postemergence
Outline: as §2

[9] = test system: winter barley (Hordeum vulgare); test: Test B postemergence plant response; settings: Postemergence; for Barley plant response rating: 250 g ai/ha, scale 0 to 100
Outline: as §2

[10] = test system: barnyardgrass (Echinochloa crus-galli); test: Test B flooded paddy test; settings: for Plant response rating, Flood, Barnyardgrass: 250 g ai/ha, flooded paddy test, visual rating on 0 to 100 scale (0 no effect, 100 complete control) after 13 to 15 days; for Plant response rating, Barnyardgrass: Flood (flooded paddy test), 13 to 15 days
Outline: (§3)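 Greenhouse-held for 13 to 15 days, treated pots were compared visually with controls and scored 0–100 (0, no effect). Treatment had been made into paddy water kept at 3 cm above the soil, with plants at the 2-leaf stage.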

[11] = test system: ducksalad (Heteranthera limosa); test: Test B flooded paddy test; settings: for Plant response rating, Flood, Ducksalad: 250 g ai/ha, flooded paddy test, visual rating on 0 to 100 scale (0 no effect, 100 complete control) after 13 to 15 days; for Plant response rating, Ducksalad: Flood (flooded paddy test), 13 to 15 days
Outline: as §3

[12] = test system: rice (Oryza sativa); test: Test B flooded paddy test; settings: for Plant response rating, Flood, Rice: 250 g ai/ha, flooded paddy test, visual rating on 0 to 100 scale (0 no effect, 100 complete control) after 13 to 15 days; for Plant response rating, Rice: Flood (flooded paddy test), 13 to 15 days
Outline: as §3

[13] = test system: umbrella sedge (Cyperus difformis); test: Test B flooded paddy test; settings: for Plant response rating, Flood, Sedge, Umbrella: 250 g ai/ha, flooded paddy test, visual rating on 0 to 100 scale (0 no effect, 100 complete control) after 13 to 15 days; for Plant response rating, Sedge, Umbrella: Flood (flooded paddy test), 13 to 15 days
Outline: as §3

[14] = test system: goosegrass (Eleusine indica); test: Test B pre-/postemergence plant response; settings: Preemergence, 62 g ai/ha; scale 0 to 100, 0 no effect, 100 complete control
[15] = 250 g ai/ha, Preemergence, 0 to 100 scale
[16] = Postemergence, 31 g ai/ha, scale 0 to 100 (0 no effect, 100 complete control)
[17] = Postemergence, 62 g ai/ha, scale 0 (no effect) to 100 (complete control), 13 to 15 days
[18] = Postemergence, 125 g ai/ha, visual rating after 13 to 15 days, scale 0 (no effect) to 100 (complete control)
[19] = Postemergence, 250 g ai/ha, scale 0 to 100
[20] = Preemergence, 31 g ai/ha, scale 0 to 100 (0 no effect, 100 complete control)
[21] = Preemergence, 62 g ai/ha, scale 0 to 100, 0 no effect, 100 complete control
[22] = Preemergence, 125 g ai/ha, 0 to 100 scale
[23] = 31 g ai/ha, scale 0 to 100 (0 no effect, 100 complete control)
[24] = 62 g ai/ha, scale 0 to 100, 0 no effect, 100 complete control
[25] = 62 g ai/ha, scale 0 (no effect) to 100 (complete control), 13 to 15 days
[26] = 125 g ai/ha, visual rating after 13 to 15 days, scale 0 (no effect) to 100 (complete control)
[27] = 31 g ai/ha, scale of 0 to 100 where 0 is no effect and 100 is complete control
[28] = 62 g ai/ha, scale 0 to 100, 0 is no effect, 100 is complete control
[29] = 125 g ai/ha, scale 0 to 100, 0 is no effect, 100 is complete control

O=C1CCCC(O)=C1C(=O)c1cnc(-c2cccc(Cl)c2)n(-c2ccccc2)c1=O [Compound 34]
Plant response rating, Bermudagrass [1, 15]: 100
Plant response rating, Bermudagrass [1, 16]: 75
Plant response rating, Bermudagrass [1, 17]: 95
Plant response rating, Bermudagrass [1, 18]: 95
Bermudagrass plant response rating [1, 19]: 98
Plant response rating, Bermudagrass [1, 20]: 100
Plant response rating, Bermudagrass [1, 21]: 100
Bermudagrass plant response rating [1, 22]: 100
Plant response rating, Galium ([2]; 250 g ai/ha, 0 to 100 scale): 98
Plant response rating, Galium [2, 23]: 10
Plant response rating, Galium [2, 24]: 50
Galium plant response rating ([2]; 0 to 100 scale): 90
Plant response rating, Morningglory [3, 15]: 98
Plant response rating, Morningglory [3, 17]: 80
Plant response rating, Morningglory [3, 18]: 85
Plant response rating, Morningglory [3, 20]: 0
Plant response rating, Morningglory [3, 21]: 0
Morningglory plant response rating [3, 22]: 75
Plant response rating, Nightshade ([4]; 250 g ai/ha, 0 to 100 scale): 100
Plant response rating, Nightshade [4, 23]: 55
Plant response rating, Nightshade [4, 24]: 95
Nightshade plant response rating ([4]; 0 to 100 scale): 100
Plant response rating, Sunflower ([5]; 250 g ai/ha, 0 to 100 scale): 90
Plant response rating, Sunflower [5, 23]: 55
Plant response rating, Sunflower [5, 24]: 70
Sunflower plant response rating ([5]; 0 to 100 scale): 80
Plant response rating, Canarygrass [6, 23]: 5
Plant response rating, Canarygrass [6, 25]: 50
Plant response rating, Canarygrass [6, 26]: 50
Canarygrass plant response rating [6]: 50
Plant response rating, Chickweed [7, 23]: 50
Plant response rating, Chickweed [7, 25]: 75
Plant response rating, Chickweed [7, 26]: 98
Chickweed plant response rating [7]: 100
Plant response rating, Windgrass [8, 25]: 40
Plant response rating, Windgrass [8, 26]: 50
Plant response rating, Barley [9, 23]: 0
Plant response rating, Barley [9, 25]: 30
Plant response rating, Barley [9, 26]: 30
Barley plant response rating [9]: 30
Plant response rating, Flood, Barnyardgrass [10]: 0
Plant response rating, Barnyardgrass [10, 27]: 0
Plant response rating, Barnyardgrass [10, 28]: 0
Plant response rating, Barnyardgrass [10, 29]: 0
Plant response rating, Flood, Ducksalad [11]: 65
Plant response rating, Ducksalad [11, 27]: 0
Plant response rating, Ducksalad [11, 28]: 0
Plant response rating, Ducksalad [11, 29]: 30
Plant response rating, Flood, Rice [12]: 0
Plant response rating, Rice [12, 27]: 0
Plant response rating, Rice [12, 28]: 0
Plant response rating, Rice [12, 29]: 0
Plant response rating, Flood, Sedge, Umbrella [13]: 40
Plant response rating, Sedge, Umbrella [13, 27]: 0
Plant response rating, Sedge, Umbrella [13, 28]: 0
Plant response rating, Sedge, Umbrella [13, 29]: 0
Plant response rating, Goosegrass [14]: 100

2-(3,5-difluorophenyl)-5-[(2-hydroxy-4-oxobicyclo[3.2.1]oct-2-en-3-yl)carbonyl]-3-(2-methoxyethyl)-4(3H)-pyrimidinone [Compound 243]
Plant response rating, Bermudagrass [1, 15]: 100
Plant response rating, Bermudagrass [1, 16]: 90
Plant response rating, Bermudagrass [1, 17]: 95
Plant response rating, Bermudagrass ([1]; Postemergence, 125 g ai/ha, scale 0 to 100 (0 no effect, 100 complete control), 13 to 15 days): 98
Bermudagrass plant response rating [1, 19]: 98
Plant response rating, Bermudagrass [1, 20]: 98
Plant response rating, Bermudagrass [1, 21]: 100
Bermudagrass plant response rating [1, 22]: 100
Plant response rating, Galium ([2]; 250 g ai/ha, 0 to 100 scale): 95
Plant response rating, Galium [2, 23]: 0
Plant response rating, Galium [2, 24]: 40
Galium plant response rating ([2]; 0 to 100 scale): 60
Plant response rating, Morningglory [3, 15]: 98
Plant response rating, Morningglory [3, 16]: 45
Plant response rating, Morningglory [3, 17]: 45
Plant response rating, Morningglory [3, 18]: 70
Morningglory plant response rating [3, 19]: 75
Plant response rating, Morningglory [3, 20]: 0
Plant response rating, Morningglory [3, 21]: 40
Morningglory plant response rating [3, 22]: 70
Plant response rating, Nightshade ([4]; 250 g ai/ha, 0 to 100 scale): 100
Plant response rating, Nightshade [4, 23]: 100
Plant response rating, Nightshade [4, 24]: 100
Nightshade plant response rating ([4]; 0 to 100 scale): 100
Plant response rating, Sunflower ([5]; 250 g ai/ha, 0 to 100 scale): 98
Plant response rating, Sunflower [5, 23]: 45
Plant response rating, Sunflower [5, 24]: 85
Sunflower plant response rating ([5]; 0 to 100 scale): 95
Plant response rating, Canarygrass [6, 23]: 5
Plant response rating, Canarygrass [6, 25]: 25
Plant response rating, Canarygrass [6, 26]: 50
Canarygrass plant response rating [6]: 60
Plant response rating, Chickweed [7, 23]: 20
Plant response rating, Chickweed [7, 25]: 85
Plant response rating, Chickweed [7, 26]: 95
Chickweed plant response rating [7]: 98
Plant response rating, Windgrass [8, 23]: 50
Plant response rating, Windgrass [8, 25]: 55
Plant response rating, Windgrass [8, 26]: 60
Windgrass plant response rating ([8]; 250 g ai/ha, scale 0 to 100): 80
Plant response rating, Barley [9, 23]: 0
Plant response rating, Barley [9, 25]: 0
Plant response rating, Barley ([9]; 125 g ai/ha, scale 0 to 100 (0 no effect, 100 complete control), 13 to 15 days): 20
Barley plant response rating [9]: 35
Plant response rating, Flood, Barnyardgrass [10]: 50
Plant response rating, Barnyardgrass [10, 27]: 0
Plant response rating, Barnyardgrass [10, 28]: 0
Plant response rating, Barnyardgrass [10, 29]: 0
Plant response rating, Flood, Ducksalad [11]: 75
Plant response rating, Ducksalad [11, 27]: 0
Plant response rating, Ducksalad [11, 28]: 30
Plant response rating, Ducksalad [11, 29]: 60
Plant response rating, Flood, Rice [12]: 0
Plant response rating, Rice [12, 27]: 0
Plant response rating, Rice [12, 28]: 0
Plant response rating, Rice [12, 29]: 0
Plant response rating, Flood, Sedge, Umbrella [13]: 75
Plant response rating, Sedge, Umbrella [13, 27]: 0
Plant response rating, Sedge, Umbrella [13, 28]: 30
Plant response rating, Sedge, Umbrella [13, 29]: 70
Plant response rating, Goosegrass [14]: 98
